Assay results: ChEMBL document CHEMBL1149531, “Inhibitory effect of 2-arylbenzofurans from Erythrina addisoniae on protein tyrosine phosphatase-1B” (Bioorg Med Chem Lett, 2007)

Molecular target: T1, Tyrosine-protein phosphatase non-receptor type 1 (Homo sapiens, UniProt P18031)
T1 sequence (P18031 whole entry): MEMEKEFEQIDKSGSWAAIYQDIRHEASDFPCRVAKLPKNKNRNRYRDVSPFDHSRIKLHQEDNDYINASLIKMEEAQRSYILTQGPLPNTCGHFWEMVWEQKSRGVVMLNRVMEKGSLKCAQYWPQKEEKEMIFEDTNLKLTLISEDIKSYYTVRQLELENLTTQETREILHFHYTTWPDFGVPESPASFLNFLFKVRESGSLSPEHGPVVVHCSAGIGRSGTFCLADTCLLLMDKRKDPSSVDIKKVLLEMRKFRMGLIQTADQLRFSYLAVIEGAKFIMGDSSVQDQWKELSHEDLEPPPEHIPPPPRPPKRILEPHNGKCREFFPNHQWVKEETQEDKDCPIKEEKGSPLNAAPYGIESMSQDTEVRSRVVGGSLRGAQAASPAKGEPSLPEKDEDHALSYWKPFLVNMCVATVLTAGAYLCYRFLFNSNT

CC1(C)C=Cc2c(O)ccc(-c3cc4ccc(O)cc4o3)c2O1
IC50: 62.7 µM

CC1(C)C=Cc2c(ccc(-c3cc4ccc(O)cc4o3)c2O)O1
IC50: 64.9 µM

COc1ccc2cc(-c3ccc(O)cc3OC)oc2c1
IC50: 74.1 µM

CC(C)=CCc1c(O)ccc(-c2cc3ccc(O)cc3o2)c1O [2'-O-DEMETHYLBIDWILLOL B]
IC50: 13.6 µM

COc1cc(O)c(CC=C(C)C)cc1-c1cc2ccc(O)cc2o1 [ADDISOFURAN A]
IC50: 17.5 µM

COc1cc(O)ccc1-c1cc2cc(CC=C(C)C)c(O)cc2o1 [ADDISOFURAN B]
IC50: 15.7 µM
